Experiments:
U937 cells = assay: Cellular assay in U937 cells: activity of RIPK1 inhibitors on TNFα/zVAD.fmk-induced cell death (necroptosis), CellTiter 96 AQueous (MTS) readout; type: cell-based; details: Homo sapiens, U-937
Procedure, shortened: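 Necroptosis was measured by viable-cell MTS reduction (4 h, absorbance 490 nm) after overnight (18–24 h) 37° C culture. Cell suspensions of U937 cells carried TNFα (100 ng/ml) plus zVAD.fmk (50 μM) before compound was added. A 10-point curve (10 μM–0.26 nM or 1 μM–0.07 nM) was run in duplicate, normalised to the control lacking TNFα/zVAD.fmk.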

[1] = molecular target: T1, hRIPK1 (aa 1-375) fusion protein (Homo sapiens, UniProt Q13546); assay: ADP-Glo kinase assay: catalytic activity of RIPK1 (autophosphorylation, conversion of ATP to ADP); type: biochemical
T1 construct: hRIPK1 (aa 1-375) fusion protein
T1 sequence (Q13546 1-375): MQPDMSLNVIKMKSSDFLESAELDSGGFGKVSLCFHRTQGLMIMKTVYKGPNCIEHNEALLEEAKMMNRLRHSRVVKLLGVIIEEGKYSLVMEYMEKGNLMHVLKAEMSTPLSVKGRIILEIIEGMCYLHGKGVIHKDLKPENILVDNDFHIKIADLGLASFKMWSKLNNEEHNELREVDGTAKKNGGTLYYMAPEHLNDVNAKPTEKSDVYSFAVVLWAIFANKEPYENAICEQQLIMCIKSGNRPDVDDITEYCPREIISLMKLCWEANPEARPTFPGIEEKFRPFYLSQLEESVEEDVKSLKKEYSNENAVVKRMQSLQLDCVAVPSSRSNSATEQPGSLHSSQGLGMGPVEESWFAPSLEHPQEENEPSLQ
Procedure, shortened: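 The readout was ADP-Glo luminescence after a 240 min rt autophosphorylation reaction with 50 μM ATP, following 30 min preincubation of 3.6 μg/ml hRIPK1 (aa 1-375) fusion with compound at 33300-1.69 nM final in 1% DMSO. Values came from Levenberg-Marquardt nonlinear fits.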

SMILES	IC50 [1] [nM]	IC50 (U937 cells) [nM]
N#Cc1cc(F)cc([C@@H]2CCON2C(=O)[C@H]2CC[C@H](Cc3ccc4ncnn4c3)CC2)c1 [compound 142, trans-3-fluoro-5-[(3S)-2-[4-([1,2,4]triazolo[1,5-a]pyridin-6-ylmethyl)cyclohexanecarbonyl]isoxazolidin-3-yl]benzonitrile]	38	4
O=C([C@H]1CC[C@H](Cc2ccc3ncnn3c2)CC1)N1OCC[C@H]1c1cnccn1 [compound 143, trans-[(3S)-3-pyrazin-2-ylisoxazolidin-2-yl]-[4-([1,2,4]triazolo[1,5-a]pyridin-6-ylmethyl)cyclohexyl]methanone]	76	44
N#Cc1cc(F)cc([C@@H]2CCON2C(=O)[C@H]2CC[C@H](Cc3ccc4c(c3)C(=O)NC4)CC2)c1 [compound 144, trans-3-fluoro-5-[(3S)-2-[4-[(3-oxoisoindolin-5-yl)methyl]cyclohexanecarbonyl]isoxazolidin-3-yl]benzonitrile]	22	3
N#Cc1cc(F)cc([C@@H]2CCON2C(=O)[C@H]2CC[C@H](Cn3ccc4ncc(OC5COC5)cc43)CC2)c1 [compound 146, trans-3-fluoro-5-[(3S)-2-[4-[[6-(oxetan-3-yloxy)pyrrolo[3,2-b]pyridin-1-yl]methyl]cyclohexanecarbonyl]isoxazolidin-3-yl]benzonitrile]	28	26
O=C([C@H]1CC[C@H](Cc2cncc(F)c2)CC1)N1OCC[C@H]1c1cnccn1 [compound 147, trans-[4-[(5-fluoro-3-pyridyl)methyl]cyclohexyl]-[(3S)-3-pyrazin-2-ylisoxazolidin-2-yl]methanone]	27	40
N#Cc1cc(F)cc([C@@H]2CCON2C(=O)[C@H]2CC[C@H](Cc3cncc(F)c3)CC2)c1 [compound 148, trans-3-fluoro-5-[(3S)-2-[4-[(5-fluoro-3-pyridyl)methyl]cyclohexanecarbonyl]isoxazolidin-3-yl]benzonitrile]	18	4
COCCOc1cnc2ccn(C[C@H]3CC[C@H](C(=O)N4OCC[C@H]4c4cc(F)cc(C#N)c4)CC3)c2c1 [compound 149, trans-3-fluoro-5-[(3S)-2-[4-[[6-(2-methoxyethoxy)pyrrolo[3,2-b]pyridin-1-yl]methyl]cyclohexanecarbonyl]isoxazolidin-3-yl]benzonitrile]	9	8
Cn1cc(C[C@H]2CC[C@H](C(=O)N3OCC[C@H]3c3cc(F)cc(C#N)c3)CC2)cn1 [compound 150, trans-3-fluoro-5-[(3S)-2-[4-[(1-methylpyrazol-4-yl)methyl]cyclohexanecarbonyl]isoxazolidin-3-yl]benzonitrile]	21	25
Cn1cc(C[C@H]2CC[C@H](C(=O)N3OCC[C@H]3c3cnccn3)CC2)cn1 [compound 151, trans-[4-[(1-methylpyrazol-4-yl)methyl]cyclohexyl]-[(3S)-3-pyrazin-2-ylisoxazolidin-2-yl]methanone]	46	214
N#Cc1cc(F)cc([C@@H]2CCON2C(=O)[C@H]2CC[C@H](Cn3ccc4ncc(OCC5CC5)cc43)CC2)c1 [compound 152, trans-3-[(3S)-2-[4-[[6-(cyclopropylmethoxy)pyrrolo[3,2-b]pyridin-1-yl]methyl]cyclohexanecarbonyl]isoxazolidin-3-yl]-5-fluoro-benzonitrile]	7	3
N#Cc1cc(F)cc([C@@H]2CCON2C(=O)[C@H]2CC[C@H](Cn3ccc4ncc(OCCO)cc43)CC2)c1 [compound 153, trans-3-fluoro-5-[(3S)-2-[4-[[6-(2-hydroxyethoxy)pyrrolo[3,2-b]pyridin-1-yl]methyl]cyclohexanecarbonyl]isoxazolidin-3-yl]benzonitrile]	6	3
O=C1NCc2ccc(C[C@H]3CC[C@H](C(=O)N4OCC[C@H]4c4cc(F)cc(F)c4)CC3)cc21 [compound 156, trans-6-[[4-[(3S)-3-(3,5-difluorophenyl)isoxazolidine-2-carbonyl]cyclohexyl]methyl]isoindolin-1-one]	16	6
CNC(=O)c1cc(F)cc(C[C@H]2CC[C@H](C(=O)N3OCC[C@H]3c3cncc(F)c3)CC2)c1 [compound 160, trans-3-fluoro-5-[[4-[(3S)-3-(5-fluoro-3-pyridyl)isoxazolidine-2-carbonyl]cyclohexyl]methyl]-N-methyl-benzamide]	6	11
CNC(=O)c1cc(F)cc(C[C@H]2CC[C@H](C(=O)N3OCC[C@H]3c3cc(F)cc(F)c3)CC2)c1 [compound 161, trans-3-[[4-[(3S)-3-(3,5-difluorophenyl)isoxazolidine-2-carbonyl]cyclohexyl]methyl]-5-fluoro-N-methyl-benzamide]	4	1
CNC(=O)c1cc(F)cc(C[C@H]2CC[C@H](C(=O)N3OCC[C@H]3c3cncc(C#N)c3)CC2)c1 [compound 163, trans-3-[[4-[(3S)-3-(5-cyano-3-pyridyl)isoxazolidine-2-carbonyl]cyclohexyl]methyl]-5-fluoro-N-methyl-benzamide]	5	10

Second part, led by results:

IC50 [1] [nM]	SMILES	IC50 (U937 cells) [nM]
29	O=C1NCc2ccc(C[C@H]3CC[C@H](C(=O)N4OCC[C@H]4c4cnccn4)CC3)cc21 [compound 145, trans-6-[[4-[(3S)-3-pyrazin-2-ylisoxazolidine-2-carbonyl]cyclohexyl]methyl]isoindolin-1-one]	16
23	O=C1NCc2ccc(C[C@H]3CC[C@H](C(=O)N4OCC[C@H]4c4ccc(F)cc4)CC3)cc21 [compound 154, trans-6-[[4-[(3S)-3-(4-fluorophenyl)isoxazolidine-2-carbonyl]cyclohexyl]methyl]isoindolin-1-one]	33
15	O=C1NCc2ccc(C[C@H]3CC[C@H](C(=O)N4OCC[C@H]4c4cncc(F)c4)CC3)cc21 [compound 155, trans-6-[[4-[(3S)-3-(5-fluoro-3-pyridyl)isoxazolidine-2-carbonyl]cyclohexyl]methyl]isoindolin-1-one]	19
33	Cc1ccc([C@@H]2CCON2C(=O)[C@H]2CC[C@H](Cc3ccc4c(c3)C(=O)NC4)CC2)cn1 [compound 157, trans-6-[[4-[(3S)-3-(6-methyl-3-pyridyl)isoxazolidine-2-carbonyl]cyclohexyl]methyl]isoindolin-1-one]	396
9	Cc1ccc(C[C@H]2CC[C@H](C(=O)N3OCC[C@H]3c3cncc(C#N)c3)CC2)cc1C(N)=O [compound 158, trans-5-[[4-[(3S)-3-(5-cyano-3-pyridyl)isoxazolidine-2-carbonyl]cyclohexyl]methyl]-2-methyl-benzamide]	33
7	Cc1nc([C@@H]2CCON2C(=O)[C@H]2CC[C@H](Cc3ccc(C)c(C(N)=O)c3)CC2)cs1 [compound 159, trans-2-methyl-5-[[4-[(3S)-3-(2-methylthiazol-4-yl)isoxazolidine-2-carbonyl]cyclohexyl]methyl]benzamide]	48
4	CNC(=O)c1cc(F)cc(C[C@H]2CC[C@H](C(=O)N3OCC[C@H]3c3cnccn3)CC2)c1 [compound 162, trans-3-fluoro-N-methyl-5-[[4-[(3S)-3-pyrazin-2-ylisoxazolidine-2-carbonyl]cyclohexyl]methyl]benzamide]	15

From patent US20260158009A1 (GENZYME CORPORATION, priority 2023, published 2026)
